Results taken from publication PMC9864219, “Chemodiversity and Anti-Leukemia Effect of Metabolites from Penicillium setosum CMLD 18” (Metabolites, 2022).

Assays:
L1210 cells = tested on: L1210 cells; parameters: method as in PMID 6320499; details: read-out: IC50 inhibiting L1210 cells; cited from earlier work
Kasumi-1 [1] = experiment: Resazurin cell viability assay, Kasumi-1; assay type: cell-based, human; details: for cell viability: Kasumi-1, 100 μM, 48 h, resazurin (Figure 5A)
From the text: (§1) Human leukemic cell lines (Kasumi-1, KG-1, MOLT-4, and Jurkat) were obtained from the American Type Culture Collection (ATCC). KG-1 cells were maintained in Iscove’s modified Dulbecco’s medium (IMDM) supplemented with 20% fetal bovine serum (FBS) (Cultilab, Campinas, Brazil), according to criteria adopted by the cell bank (https://www.atcc.org/products/ccl-246#detailed-product-information) accessed on 10 November 2021, whereas the other lineages were maintained in Roswell Park Memorial Institute medium (RPMI 1640) (Sigma Aldrich, St. Louis, MI, USA) supplemented with 10% FBS. All cells were cultured in a medium containing 100 U/mL penicillin (Sigma Aldrich, St. Louis, MI, USA) and 100 μg/mL streptomycin (Sigma Aldrich, St. Louis, MI, USA) and in a humidified incubator containing 5% CO2 at 37 °C. Passage numbers for all leukemic cell lines were between 3 and 6.
(§2) A resazurin assay (Sigma Aldrich, St. Louis, MI, USA) was used to screen and assess the activity of extracts, fractions, and isolated compounds against leukemic cell lines. Briefly, 10^5 cells/mL were seeded in 96-well plates containing supplemented medium. Cells were treated in the presence or absence of compounds for 48 h using a high concentration (100 µg/mL or 100 µM to isolated compounds) or a concentration–response curve (100, 50, 25, 12.5, 6.25, 3.12, 1.56, and 0.78 µM) after 24 h of treatment with isolated compounds was constructed. After treatment, the cell culture medium was removed, and 100 µL of medium with 10% Resazurin solution was added; after 4 h of incubation, the fluorescence was measured (excitation 530 nm, emission 590 nm) in a FlexStation 3 microplate reader (Molecular Devices, San Jose, CA, USA). Each experiment was performed in triplicate.

Hela = tested on: Hela; parameters: method as in PMID 28509552; details: Alamar Blue, 72 hrs; cited from earlier work
Jurkat [2] = tested on: Jurkat; parameters: method as in PMID 28509552; details: Alamar Blue, 72 hrs; cited from earlier work
Jurkat [3] = experiment: Resazurin cell viability assay, Jurkat; assay type: cell-based, human; details: for cell viability: 100 μM, 48 h, resazurin (Figure 5B)
From the text: as §1, §2

K-562 = tested on: K-562; parameters: method as in PMID 28509552; details: Alamar Blue, 72 hrs; cited from earlier work
[4] = molecular target: ACL, an ATP citrate lyase; parameters: method as in PMID 27997879; details: read-out: IC50 inhibitory activity against ACL; cited from earlier work
Kasumi-1 [5] = experiment: Cell cycle analysis (PI) and cell count, Kasumi-1; assay type: cell-based, human; details: Kasumi-1, 10 μM, 72 h
Experimental: (§3) The distribution of cell cycle phases was determined by propidium iodide (PI) staining and flow cytometry analysis. Kasumi-1 and Jurkat cells (10^5/mL) were treated with 10 (10 μM or 1 μM, respectively) for 72 h. Then, the cells were fixed and permeabilized as previously described and treated with 4 μg/mL RNase (Sigma Aldrich, St. Louis, MI, USA) for 45 min at 37 °C. For DNA labeling, cells were incubated with 5 μg/mL of PI (Sigma Aldrich, St. Louis, MI, USA). Percentages of cells within cell cycle compartments (G1/G0, S, and G2/M) were performed using an Accuri C6 flow cytometer (BD Biosciences, Mississauga, Canadá). A total of 40,000 events were acquired.

normal PBMC cells = experiment: Resazurin cell viability assay, normal PBMC; assay type: cell-based, human; details: concentration-response curve, 24 h
Experimental: Peripheral blood mononuclear cells (PBMCs) were obtained from three healthy donors. Human monocytes were collected from healthy donors after informed patient consent was obtained. Separation of mononuclear cells was performed by gradient centrifugation methods using Ficoll Histopaque-1077 (1.077 g/cm^3) (Sigma Aldrich, St. Louis, MI, USA) following the manufacturer’s instructions. The use of human samples was approved by the local Ethical Committee of the Universidade Federal de Mato Grosso do Sul (CAAE35853720.2.0000.0021). Cells were maintained in IMDM supplemented with 20% FBS, 100 U/mL penicillin, and 100 μg/mL streptomycin in a humidified atmosphere at 37 °C in 5% CO2.
A resazurin assay (Sigma Aldrich, St. Louis, MI, USA) was used to screen and assess the activity of extracts, fractions, and isolated compounds against leukemic cell lines. Briefly, 10^5 cells/mL were seeded in 96-well plates containing supplemented medium. […] After treatment, the cell culture medium was removed, and 100 µL of medium with 10% Resazurin solution was added; after 4 h of incubation, the fluorescence was measured (excitation 530 nm, emission 590 nm) in a FlexStation 3 microplate reader (Molecular Devices, San Jose, CA, USA). […]

Jurkat [6] = experiment: Annexin V-FITC/7-AAD flow cytometry assay, Jurkat; assay type: cell-based, human; details: 50 μM, 24 h
Experimental: (§4) An Annexin V-FITC/7-AAD double staining assay was performed to evaluate the proapoptotic effect of 10. Kasumi-1 and Jurkat cells (10^5/mL) were treated for 24 h with EC50, 50, or 50 µM 10, respectively, or Staurosporine (1 µM) (Sigma Aldrich, St. Louis, MI, USA). Then, the cells were resuspended in annexin binding buffer (0.14 M NaCl, 2.5 mM CaCl2, 0.01 M HEPES, pH 7.4) and incubated at room temperature with 1 μL and 2 μL of annexin V-FITC and 7-AAD (Becton Dickinson, Covington, GA, USA), respectively, for 30 min. Data were analyzed using FlowJo V10 (Becton Dickinson—BD, USA) software; 20,000 events were collected per sample.

[7] = tested on: cleaved caspase-3 in Jurkat; experiment: Intracellular labeling of cleaved caspase-3 by flow cytometry, Jurkat; assay type: cell-based, human; details: 50 μM, 24 h
Experimental: (§5) Kasumi-1 and Jurkat cells (10^5/mL) were treated for 24 h with EC50, 50, or 50 µM 10, respectively. Then, cells were fixed with BD Cytofix (BD Biosciences, Mississauga, ON, Canadá) for 15 min, washed with BD Perm/Wash buffer, and permeabilized with Perm Buffer III (BD, USA) for 30 min at room temperature. In order to label cleaved caspase-3 protein (Cell Signaling, Danvers, MA, USA), cells were incubated for 1 h with primary antibody (1:800). Anti-rabbit IgG secondary antibodies conjugated with Alexa Fluor 488 (Thermo Fisher Scientific, Waltham, MA, USA) (1:1000) were incubated for at least 40 min, and the fluorescence was measured using an Accuri C6 flow cytometer and FlowJo software to analyze the results; 20,000 events were collected per sample. Protein analyses were performed using GM fluorescence intensity.

Jurkat [8] = experiment: Cell cycle analysis (PI) and cell count, Jurkat; assay type: cell-based, human; details: 10 μM, 72 h
Experimental: as §3, with “Kasumi-1 and Jurkat cells (10^5/mL) were treated with 10 (10 μM or 1 μM, respectively) for 72 h.” left out

[9] = tested on: cleaved caspase-3 in Kasumi-1; experiment: Intracellular labeling of cleaved caspase-3 by flow cytometry, Kasumi-1; assay type: cell-based, human; details: Kasumi-1, 50 μM, 24 h
Experimental: as §5

Kasumi-1 [10] = experiment: Annexin V-FITC/7-AAD flow cytometry assay, Kasumi-1; assay type: cell-based, human; details: Kasumi-1, 50 μM, 24 h
Experimental: as §4

HL-60 = tested on: HL-60; parameters: method as in doi:10.1016/j.cclet.2017.09.006; details: acute myeloid leukemia cell line; read-out: IC50 against the HL-60 lineage; cited from earlier work
[11] = tested on: CD11b expression in Kasumi-1 cells; experiment: Cell differentiation by immunophenotyping (CD11b); assay type: cell-based, human; details: Kasumi-1, 10 μM, 72 h
Experimental: Cells (10^5/mL) were treated with 10 μM Compound 10 for 72 h. Then, the cells were collected and stained with CD11b-Cy7/PE (2 μL) (BD, USA). The measurements of fluorescence intensity were performed using an Accuri C6 flow cytometer (BD Biosciences, Mississauga, Canadá); 40,000 events were collected per sample. Results were expressed as GM fluorescence intensity.

## Cc1cc(O)c2c(c1)C(=O)c1cc(O)cc(O)c1C2=O [Compound 3, emodin]
L1210 cells
  IC50: 35 µM

## O=C1c2cc(CO)cc(O)c2C(=O)c2c1cc(O)c(Cl)c2O [Compound 7, 2-chloro-1,3,8-trihydroxy-6-(hydroxymethyl)anthracene-9,10-dione]
Kasumi-1 [1]
  cell viability: reduction in cell viability
Hela
  activity against Hela: inactive
Jurkat [2]
  activity against Jurkat: inactive
Jurkat [3]
  cell viability: reduction in cell viability
K-562
  activity against K-562: inactive

## Cc1cc(O)c2c(c1)C(=O)c1cc(O)c(Cl)c(O)c1C2=O [Compound 8, 7-chloroemodin]
[4]
  IC50: 12.6 µM
Kasumi-1 [1]
  cell viability: reduction in cell viability
Jurkat [3]
  cell viability: reduction in cell viability

## CSC12CC3=COC=CC(OC(C)=O)C3N1C(=O)C1(SC)CC3=COC=CC(OC(C)=O)C3N1C2=O (stereo not shown) [Compound 9, bisdethiobis(methylthio)acetylaranotine]
Kasumi-1 [1]
  cell viability: reduction in cell viability
Jurkat [3]
  cell viability: reduction in cell viability

## C=CC(C)(C)c1[nH]c2ccccc2c1CC1NC(=O)C(Cc2c(C(C)(C)C=C)[nH]c3ccccc23)NC1=O (stereo not shown) [Compound 10, fellutanine C]
Kasumi-1 [5]
  cell proliferation (cell count): reduction in cell proliferation
  cell viability at the cell cycle concentration: did not observe a reduction in cell viability
Kasumi-1 [5]; PI staining
  cell cycle distribution: cell cycle arrest in G0/G1
Kasumi-1 [1]; Homo sapiens, Kasumi-1, concentration-response curve, 24 h, resazurin
  EC50: 50 µM
Kasumi-1 [1]
  cell viability: reduction in cell viability
Normal PBMC cells
  cytotoxicity effect on normal PBMC cells: did not show a cytotoxicity effect
Jurkat [6]
  cell death mode (Annexin V-FITC and 7-AAD staining): predominant double staining (late apoptosis and necrosis-like)
[7]
  cleaved-caspase-3: increased cleaved-caspase-3
Jurkat [8]
  cell proliferation (cell count): reduction in cell proliferation
  cell viability at the cell cycle concentration: did not observe a reduction in cell viability
Jurkat [8]; PI staining
  cell cycle distribution: cell cycle arrest in G0/G1
[9]
  cleaved-caspase-3: increased cleaved-caspase-3
Kasumi-1 [10]
  cell death mode (Annexin V-FITC and 7-AAD staining): predominant apoptosis staining (Anx-FITC+/7 AAD-)
Jurkat [3]
  cell viability: reduction in cell viability
Jurkat [3]; Homo sapiens, concentration-response curve, 24 h, resazurin
  EC50: 50 µM
HL-60
  IC50: 9.34 µM
[11]
  expression of mature myeloid marker CD11b: did not produce an increase in the expression of CD11b
